Laboratory results: ChEMBL document CHEMBL1159389, “Ulongapeptin, a cytotoxic cyclic depsipeptide from a Palauan marine cyanobacterium Lyngbya sp” (J Nat Prod, 2003)

Test system: KB
Assay: Cytotoxicity against human KB cells
Type: functional, cell-based

C#CCCC[C@@H]1NC(=O)[C@H](C(C)C)NC(=O)[C@@H](Cc2ccccc2)N(C)C(=O)[C@@H](C(C)C)N(C)C(=O)[C@H](C(C)C)NC(=O)[C@H](C(C)C)N(C)C(=O)[C@H](C)OC(=O)[C@H]1C [ULONGAPEPTIN]
IC50: 630 nM
